Measured values: US20140242093A1, “METHODS AND COMPOSITIONS FOR MODULATING THE INNATE IMMUNE RESPONSE AND/OR MYOGENESIS IN A MAMMALIAN SUBJECT” (FRED HUTCHINSON CANCER RESEARCH CENTER, priority 2011, published 2014)

Test system: normal skeletal muscle cells
Assay: RT-PCR of cancer testis antigens in transduced normal skeletal muscle cells
Format: cell-based, human
Details: RT-PCR vs lenti-GFP
Description: The results were normalized to an internal control standard of either 18S or GAPDH.

DUX4-fl: full-length DUX4 protein (SEQ ID NO:110), expressed from lentiviral or pCS2 vectors or in vitro translated
induction of cancer testis antigens BAGE, MAGEA4, MAGEA9, SSX1, SSX2, SSX4 and a PRAME family member: over 2 fold
